Results as given in paper PMC11846289, “New tetrahydroisoquinolines bearing nitrophenyl group targeting HSP90 and RET enzymes: synthesis, characterization and biological evaluation” (BMC Chemistry, 2025).
In brackets after ≈: the same amount, converted by molar mass. Entries after “also recorded” stand apart in the source; their conditions may differ.

Assays:
[1] = tested on: MG-63 (human osteosarcoma); experiment: one spot 100 µg/ml cytotoxicity, MG-63; format: cell-based; conditions: Homo sapiens, MG-63, percent inhibition, read-out: one spot concentration inhibition, MG-63
[2] = tested on: HCT116 (colon carcinoma human); experiment: one spot 100 µg/ml cytotoxicity, HCT116; format: cell-based; conditions: Homo sapiens, HCT-116, percent inhibition, read-out: one spot concentration inhibition, HCT116
[3] = tested on: CACO2 (colon carcinoma human); experiment: one spot 100 µg/ml cytotoxicity, CACO2; format: cell-based; conditions: Homo sapiens, Caco-2, percent inhibition, read-out: one spot concentration inhibition, CACO2
[4] = tested on: A549 (human lung carcinoma); experiment: one spot 100 µg/ml cytotoxicity, A549; format: cell-based; conditions: Homo sapiens, A549, percent inhibition, read-out: one spot concentration inhibition, A549
[5] = tested on: H460 (human lung carcinoma); experiment: one spot 100 µg/ml cytotoxicity, H460; format: cell-based; conditions: Homo sapiens, NCI-H460, percent inhibition, read-out: one spot concentration inhibition, H460
[6] = tested on: HUH7 (human liver carcinoma); experiment: one spot 100 µg/ml cytotoxicity, HUH7; format: cell-based; conditions: Homo sapiens, Huh-7, percent inhibition, read-out: one spot concentration inhibition, HUH7
[7] = tested on: HEPG2 (human liver carcinoma); experiment: one spot 100 µg/ml cytotoxicity, HEPG2; format: cell-based; conditions: Homo sapiens, HepG2, percent inhibition, read-out: one spot concentration inhibition, HEPG2
[8] = tested on: MCF7 (human breast carcinoma); experiment: one spot 100 µg/ml cytotoxicity, MCF7; format: cell-based; conditions: Homo sapiens, MCF7, percent inhibition, read-out: one spot concentration inhibition, MCF7
[9] = tested on: normal human skin cell line (HSF); experiment: one spot 100 µg/ml cytotoxicity, normal skin cell line HSF; format: cell-based; conditions: Homo sapiens
HSF = experiment: IC50 against normal cell line HSF; format: cell-based, human; conditions: Homo sapiens; normal skin cell line HSF; read-out: IC50 FOR HSF ± S.D.
MCF7 cell line = experiment: MTT in vitro cytotoxicity, MCF7; format: cell-based, human
Experimental: (§1) Using the MTT test method, the in vitro cytotoxicity of our synthesized compounds at different doses ranging from […] was examined in two cell lines, HEPG2 and MCF7, to examine 50% of the cancer cells dying.
(§2) Some of the synthesized compounds were tested as anticancer activity for the IC50 against two cell lines HEPG2 and MCF7 cells according to method. All cell lines were obtained from national cancer institute, Cairo—Egypt.

HEPG2 cell line = experiment: MTT in vitro cytotoxicity, HEPG2; format: cell-based, human
Experimental: as §1, §2

HEPG2 cells [10] = experiment: Cell cycle analysis by DNA flow cytometry; format: cell-based, human
From the text: After adding compound 3, we explore the growth inhibitory cell cycle mechanism of HEPG2 cell lines using DNA flow cytometry to examine the control and advancement of the cell cycle in HEPG2 cancer cells. […] When compound 3 was applied to HEPG2 cells, the cells cycled between the G0-G1 and G2/M phases (Fig. 4, Table 3). […] Compound 3 can also stop HEPG2 cells at the G0–G1% stage of the cell cycle, with an increase in the G0–G1phase fraction from 34.54 to 40.10.
The cell cycle arrests of compound 3 against HEPG2 was carried out according to Abcam method (code ab139418), (www.abcam.co.jp).

HEPG2 cells [11] = experiment: Annexin V-FITC/PI apoptosis assay; format: cell-based, human
Experimental: Showing a marked rise in overall apoptosis relative to the untreated control. […] HEPG2 cell death increases by 59 times following treatment with compounds 3. Therefore compound 3 has a biological mechanism that inhibits the proliferation of HEPG2 cells and has cytotoxic effects against cancer.
The Annexin-V FITC apoptosis assay of compounds 3 against HEPG2 was performed according to (BioVision Research Products (code k101-25). (www.biovision.com).

CSc1nc(C)c2c(c1C#N)CC(C)(O)C(C(C)=O)C2c1cccc([N+](=O)[O-])c1 (stereo not drawn) [Compound 3, 7-Acetyl-4-cyano-1,6-dimethyl-6-hydroxy-3-methylthio-8-(3-nitrophenyl)−5,6,7,8-tetrahydroisoquinoline]
inhibition at 100 µg/mL [1]: 44.3% | inhibition at 100 µg/mL [2]: 67.1% | inhibition at 100 µg/mL [3]: 59.2% | inhibition at 100 µg/mL [4]: 50.6% | inhibition at 100 µg/mL [5]: 62% | inhibition at 100 µg/mL [6]: 32.9% | inhibition at 100 µg/mL [7]: 67.7% | inhibition at 100 µg/mL [8]: 71.5% | cytotoxicity at 100 µg/mL ([9]; HSF, one spot 100 µg/ml, read-out: Inhibition percent of HSF cell line): 52% | inhibition at 100 µg/mL ([9]; 100 µg/ml, supplement Table S1, read-out: one spot concentration inhibition, HSF): 50.6% | IC50 (HSF): 96 µg/mL (≈ 233 µM) | Selectivity Index = IC50 of HSF/ IC50 of MCF7 (MCF7 cell line; HSF vs MCF7): 2.9 | IC50 (MCF7 cell line; Homo sapiens, MTT, MCF7, read-out: IC50 for MCF7 ± S.D): 33 ± 0.034 µg/mL (≈ 80.2 µM) | Selectivity Index = IC50 of HSF/IC50 of HEPG2 (HEPG2 cell line; HSF vs HEPG2): 1.2 | IC50 (HEPG2 cell line; Homo sapiens, MTT, HEPG2, read-out: IC50 for HEPG2 ± S.D): 75 ± 0.063 µg/mL (≈ 182 µM) | cell cycle arrest phase (HEPG2 cells [10]; HEPG2): G2/M phase; also recorded: G0-G1, G2/M phases | %G2/M (HEPG2 cells [10]; HEPG2, 48 h at IC50 75 µg/ml, control 12.12): 25.67% | %S (HEPG2 cells [10]; HEPG2, 48 h at IC50 75 µg/ml, control 23.51): 22.10% | %G0–G1 (HEPG2 cells [10]; HEPG2, 48 h at IC50 75 µg/ml, control 34.54): 40.1% | Apoptosis Early (HEPG2 cells [11]; HEPG2, control 0.2): 13.45% | Apoptosis Late (HEPG2 cells [11]; HEPG2, control 0.31): 16.78% | Necrosis (HEPG2 cells [11]; HEPG2, control 1.36): 2.96% | Apoptosis Total (HEPG2 cells [11]; HEPG2, control 1.87): 33.19% | fold increase in HEPG2 cell line apoptosis (HEPG2 cells [11]; relative to untreated control): 59 fold
